Data reported in US10829520B2, “Beta-hairpin peptidomimetics” (POLYPHOR AG, priority 2015, dated 2020).
Where a SMILES comes first, the peptide text is derived from it. Bridges are numbered along the chain shown (N, C = ends). [ ]: non-standard residue; d: D form. Tle = CC(C)(C)[C@H](N)C(=O)O; dDab = NCC[C@@H](N)C(=O)O; Nle = CCCC[C@H](N)C(=O)O; Dab = NCC[C@H](N)C(=O)O; Sar = CNCC(=O)O

Legend:
Type in all cases: cell-based
[1] = test system: Acinetobacter baumannii 872842; conditions: 872842
[2] = test system: Acinetobacter baumannii DSM 30008; conditions: DSM 30008
Procedure, shortened: (§1)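 MIC in μg/mL; CLSI microdilution; cation-adjusted Mueller-Hinton II with Polysorbate 80 (0.002%); 10^6 CFU/mL; 35° C, 18-20 h.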

[3] = test system: Escherichia coli 926415; conditions: 926415
[4] = test system: Escherichia coli ATCC 25922; conditions: ATCC 25922
Procedure, shortened: as §1

[5] = test system: Klebsiella pneumoniae 968733; conditions: 968733
[6] = test system: Klebsiella pneumoniae SSI #3010; conditions: SSI #3010
Procedure, shortened: as §1

[7] = test system: Pseudomonas aeruginosa ATCC 27853; conditions: ATCC 27853
Procedure, shortened: as §1

[8] = test system: human red blood cells (hRBC); assay: Hemolysis of human red blood cells; conditions: red cells of human, 1 h, 100 μg/mL
Procedure, shortened: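 Fresh human red blood cells are washed in PBS, then shaken with peptide (100 μg/mL) at 37° C. for 1 h, final erythrocyte density about 0.9×10^9 cells/mL. After centrifugation, diluted supernatants are read at 540 nm against buffer (0%) and Triton X-100 (100%) lysis controls.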

| Structure (SMILES) | Acinetobacter baumannii 872842 MIC [1] [µg/mL] | Acinetobacter baumannii DSM 30008 MIC [2] [µg/mL] | Escherichia coli 926415 MIC [3] [µg/mL] | Escherichia coli ATCC 25922 MIC [4] [µg/mL] | Klebsiella pneumoniae 968733 MIC [5] [µg/mL] | Klebsiella pneumoniae SSI #3010 MIC [6] [µg/mL] | Pseudomonas aeruginosa ATCC 27853 MIC [7] [µg/mL] | Hemolysis at 100 μg/mL [8] [%] |
| --- | --- | --- | --- | --- | --- | --- | --- | --- |
| CCCC[C@@H]1NC(=O)[C@@H]2CCCN2C(=O)[C@H]2CCCN2C(=O)[C@H](CO)NC(=O)[C@H](C)NC(=O)[C@H](C(C)(C)C)NC(=O)[C@@H](NC(=O)[C@H](Cc2c[nH]c3ccccc23)NC(C)=O)CSSC[C@@H](C(=O)N[C@@H](CCN)C(=O)NCC(=O)N[C@H](C(=O)N[C@@H](CCN)C(=O)N[C@H]2CCNC(=O)[C@H]([C@@H](C)O)NC(=O)[C@H](CCN)NC(=O)[C@H](CCN)NC(=O)[C@H](CC(C)C)NC(=O)[C@@H](Cc3ccccc3)NC(=O)[C@H](CCN)NC2=O)[C@@H](C)O)NC(=O)[C@H](Cc2ccc(O)cc2)NC(=O)[C@H](CO)NC1=O [Ex. 31] (Ac-WC[Tle]AS[dP]P[Nle]SYC[Dab]GT[Dab][Dab][Dab][dF]L[Dab][Dab]T; disulfide 2-11; lactam 16-C) | 1 | 0.125 | 1.5 | 0.5 | 0.75 | 0.25 | 1 | 2 |
| CC(C)C[C@@H]1NC(=O)[C@@H](CC(C)C)NC(=O)[C@H](CCN)NC(=O)[C@@H](NC(=O)[C@H](CCN)NC(=O)[C@@H](NC(=O)[C@H](CCN)NC(=O)CN(C)C(=O)[C@H](CCN)NC(=O)[C@H](Cc2ccc(O)cc2)NC(=O)[C@@H]2CSSC[C@H](NC(=O)[C@@H](NC(=O)[C@H](CCN)NC(=O)[C@@H](N)Cc3c[nH]c4ccccc34)C(C)(C)C)C(=O)N[C@@H](CO)C(=O)N3CCC[C@@H]3C(=O)N3CCC[C@H]3C(=O)N[C@@H](CC(C)C)C(=O)N2)[C@@H](C)O)CCNC(=O)[C@H]([C@@H](C)O)NC(=O)[C@H](CCN)NC(=O)[C@H](CCN)NC1=O [Ex. 161] (H-W[Dab][Tle]CS[dP]PLCY[Dab][Sar][Dab]T[Dab][Dab][Dab][dL]L[Dab][Dab]T; disulfide 4-9; lactam 16-C) | 0.5 | 0.25 | 0.25 | 0.0625 | 2 | 0.125 | 0.5 | <1 |
| CC(C)C[C@@H]1NC(=O)[C@@H](CC(C)C)NC(=O)[C@H](CCN)NC(=O)[C@@H](NC(=O)[C@@H](CCN)NC(=O)[C@@H]2CSSC[C@H](N)C(=O)N[C@@H](Cc3c[nH]c4ccccc34)C(=O)N[C@@H](CCN)C(=O)N[C@@H](C(C)C)C(=O)N[C@@H]([C@@H](C)O)C(=O)N[C@@H](Cc3ccc(O)cc3)C(=O)N3CCC[C@@H]3C(=O)N3CCC[C@H]3C(=O)N[C@@H](CC(C)C)C(=O)N[C@@H](CO)C(=O)N[C@@H](Cc3ccc(O)cc3)C(=O)N[C@@H](CCN)C(=O)N[C@@H](CCN)C(=O)N2)CCNC(=O)[C@H]([C@@H](C)O)NC(=O)[C@H](CCN)NC(=O)[C@H](CCN)NC1=O [Ex. 209] (H-CW[Dab]VTY[dP]PLSY[Dab][Dab]C[dDab][Dab][Dab][dL]L[Dab][Dab]T; disulfide 1-14; lactam 16-C) | 0.5 | 0.5 | 0.25 | 0.125 | 0.5 | 0.25 | 1 | 3 |
